The record followed here is publication PMC4774894 (Journal of natural products, 2015).

The subject of this test is HIV-1 NL4-3. As to conditions: for selectivity index CC50/EC50: CC50 (MT4 cells) / EC50 (HIV-1 NL4-3 in MT4); for selectivity index (SI) (bound or span stated in text for a group of compounds): bound or span over the group named.

Turning to `C=C(C)[C@]12C[C@@H](COC(=O)c3ccccc3)[C@@]34OC5(O[C@@H]1[C@@H]3[C@@H]1O[C@]1(COC(=O)c1ccccc1)[C@@H](O)[C@@]1(O)[C@H]4[C@H]([C@H](C)[C@@H]1O)[C@H](C)CCCCCC[C@H]5O)O2` [Compound 5, Stelleralide H], the “selectivity index CC50/EC50” value was at least 13163 and the “selectivity index (SI) (bound or span stated in text for a group of compounds)” value is “more than 10 000”. `C=C(C)[C@]12C[C@@H](C)[C@@]34O[C@](CCCCCCCCC)(O[C@@H]1[C@@H]3[C@@H]1O[C@]1(CO)[C@@H](O)[C@]1(O)C(=O)C(C)=C[C@H]14)O2` [Compound 19, simplexin]: the “selectivity index CC50/EC50” value was at least 400.

Regarding `C=C(C)[C@]12C[C@@H](C)[C@@]34OC5(CCCCCCC[C@@H](C)[C@H]6[C@H](C)[C@H](OC(=O)c7ccccc7)[C@@](O)([C@H](O)[C@@]7(CO)O[C@H]7[C@H]3[C@H]1O5)[C@@H]64)O2` [Compound 11, pimelea factor P2], the “selectivity index CC50/EC50” value is listed as at least 14272 and the “selectivity index (SI) (bound or span stated in text for a group of compounds)” value is given as “more than 10 000”. With `C=C(C)[C@@]12O[C@@]3(/C=C/C=C/CCCCCCCCC)O[C@@H]1[C@@H]1[C@@H]4O[C@]4(CO)[C@@H](O)[C@]4(O)C(=O)C(C)=C[C@H]4[C@@]1(O3)[C@H](C)[C@H]2OC(C)=O` [Compound 13, wikstroelide A], the “selectivity index CC50/EC50” value is reported as at least 1300. Take `C=C(C)[C@]12C[C@@H](COC(=O)c3ccccc3)[C@@]34OC5(O[C@@H]1[C@@H]3[C@@H]1O[C@]1(CO)[C@@H](O)[C@@]1(O)[C@H]4[C@H]([C@H](C)[C@@H]1OC(=O)c1ccccc1)[C@H](C)C[C@@H](OC(=O)c1ccccc1)CCCC[C@H]5O)O2` [Compound 4, Stelleralide G]: the “selectivity index CC50/EC50” value is recorded as at least 15342 and the “selectivity index (SI) (bound or span stated in text for a group of compounds)” value is “more than 10 000”. `C=C(C)[C@]12C[C@@H](C)[C@@]34O[C@](/C=C/C=C/CCCCCCCCC)(O[C@@H]1[C@@H]3[C@@H]1O[C@]1(CO)[C@@H](O)[C@]1(O)C(=O)C(C)=C[C@H]14)O2` [Compound 16, huratoxin]: the “selectivity index CC50/EC50” value was at least 5384.

Turning to `C=C(C)[C@@]12OC3(/C=C/C=C/CCCCCCCCCC)O[C@@H]1[C@@H]1[C@@H]4O[C@]4(CO)[C@@H](O)[C@]4(O)C(=O)C(C)=C[C@H]4[C@@]1(O3)[C@H](C)[C@H]2O` [Compound 6, Stelleralide I], the “selectivity index CC50/EC50” value is at least 135.

Turning to `C=C(C)[C@@]1(O)[C@H](OC(=O)/C=C/C=C/CCCCCCCCC)[C@@H]2[C@@H]3O[C@]3(CO)[C@@H](O)[C@]3(O)C(=O)C(C)=C[C@H]3[C@@]2(O)[C@H](C)[C@H]1OC(C)=O` [Compound 18, wikstroelide J], the “selectivity index CC50/EC50” value is listed as at least 345. `C=C(C)[C@]12C[C@@H](COC(=O)c3ccccc3)[C@]34OC5(CCCCCCC[C@H](C)[C@@H]6[C@@H]3[C@]3(O[C@]6(C)OC3=O)[C@H](O)[C@@]3(COC(=O)CCCCCCC/C=C\C/C=C\CCCCC)O[C@H]3[C@H]4[C@H]1O5)O2` [Compound 2, Stelleralide E]: the “selectivity index CC50/EC50” value is at least 1 and the “selectivity index (SI) (bound or span stated in text for a group of compounds)” value is on record as below 50. Regarding `C=C(C)[C@]12C[C@@H](C)[C@@]34OC(/C=C/C=C/CCCCCCCCCC)(O[C@@H]1[C@@H]3[C@@H]1O[C@]1(CO)[C@@H](O)[C@]1(O)C(=O)C(C)=C[C@H]14)O2` [Compound 15, wikstrotoxin A], the “selectivity index CC50/EC50” value is given as at least 1284. For the molecule `C=C(C)[C@]12C[C@@H](COC(C)=O)[C@@]34OC5(O[C@@H]1[C@@H]3[C@@H]1O[C@]1(CO)[C@@H](O)[C@@]1(O)[C@H]4[C@H]([C@H](C)[C@@H]1OC(=O)c1ccccc1)[C@H](C)C[C@@H](OC(=O)c1ccccc1)CCCC[C@H]5O)O2` [Compound 3, Stelleralide F], the “selectivity index CC50/EC50” value is listed as at least 12903 and the “selectivity index (SI) (bound or span stated in text for a group of compounds)” value was “more than 10 000”.

With `C=C(C)[C@]12C[C@@H](C)[C@]34O[C@]5(CCCCCCC[C@H](C)[C@@H]6[C@@H]3[C@]3(O[C@]6(C)OC3=O)[C@H](O)[C@@]3(CO)O[C@H]3[C@H]4[C@H]1O5)O2` [Compound 9, pimelotide A], the “selectivity index CC50/EC50” value was at least 16 and the “selectivity index (SI) (bound or span stated in text for a group of compounds)” value was below 50. On to `C=C(C)[C@]1(O)C[C@@H](C)[C@@]2(O)[C@H]([C@H]1OC(=O)/C=C/C=C/CCCCCCCCC)[C@@H]1O[C@]1(CO)[C@@H](O)[C@]1(O)C(=O)C(C)=C[C@H]12` [Compound 17, wikstroelide M], for which the “selectivity index CC50/EC50” value is at least 281. With `C=C(C)[C@]12C[C@@H](COC(=O)c3ccccc3)[C@]34OC5(CCCCCCC[C@H](C)[C@@H]6[C@@H]3[C@]3(O[C@]6(C)OC3=O)[C@H](O)[C@@]3(COC(=O)CCCCCCCCCCCCCCC)O[C@H]3[C@H]4[C@H]1O5)O2` [Compound 1, Stelleralide D], the “selectivity index CC50/EC50” value is given as at least 18 and the “selectivity index (SI) (bound or span stated in text for a group of compounds)” value is below 50. Consider `C=C(C)[C@@]12OC3(/C=C/C=C/CCCCCCCCCC)O[C@@H]1[C@@H]1[C@@H]4O[C@]4(CO)[C@@H](O)[C@]4(O)C(=O)C(C)=C[C@H]4[C@@]1(O3)[C@H](C)[C@H]2OC(C)=O` [Compound 14, wikstroelide B], for which the “selectivity index CC50/EC50” value is reported as at least 392. As for `C=C(C)[C@]12C[C@@H](COC(=O)c3ccccc3)[C@]34OC5(CCCCCCC[C@H](C)[C@@H]6[C@@H]3[C@]3(O[C@]6(C)OC3=O)[C@H](O)[C@@]3(CO)O[C@H]3[C@H]4[C@H]1O5)O2` [Compound 8, stelleralide C], the “selectivity index CC50/EC50” value is at least 41 and the “selectivity index (SI) (bound or span stated in text for a group of compounds)” value was below 50.

For the molecule `C=C(C)[C@]12C[C@@H](COC(=O)c3ccccc3)[C@@]34OC5(O[C@@H]1[C@@H]3[C@@H]1O[C@]1(CO)[C@@H](O)[C@@]1(O)[C@H]4[C@H]([C@H](C)[C@@H]1OC(=O)c1ccccc1)[C@H](C)CCCCCC[C@H]5O)O2` [Compound 10, gnidimacrin], the “selectivity index CC50/EC50” value is on record as at least 21500 and the “selectivity index (SI) (bound or span stated in text for a group of compounds)” value was “more than 10 000”. On to `C=C(C)[C@]12C[C@@H](COC(=O)c3ccccc3)[C@@]34OC5(CCCCCCC[C@@H](C)[C@H]6[C@H](C)C(=O)[C@@](O)([C@H](O)[C@@]7(CO)O[C@H]7[C@H]3[C@H]1O5)[C@@H]64)O2` [Compound 12, wikstroelide F], for which the “selectivity index CC50/EC50” value is given as at least 318.

For the molecule `C=C(C)[C@]1(O)C[C@@H](C)[C@@]2(O)[C@H]([C@H]1OC(=O)/C=C/C=C/CCCCCCCCC)[C@H](O)[C@@](O)(CO)[C@@H](O)[C@]1(O)C(=O)C(C)=C[C@H]12` [Compound 7, Stelleralide J], the “selectivity index CC50/EC50” value is listed as at least 100.
